# Experimental data taken from publication PMC7920489 (Pharmaceuticals, 2021).
# Like-named read-outs stand apart in the source and are kept apart here.
# Legend:
# [1] = nude, mouse, in vivo, ip, 50 mg/kg
# [2] = in vivo; conditions: nude, mouse, ip, 50 mg/kg
compound,measurement,setting,value
COc1cccc(-c2cc(=O)c3ccccc3o2)c1NC(=O)C(C)(C)c1cc(C(=O)Nc2ccc(N(CCCl)CCCl)cc2)ccc1N [AL530],tmax,[1],2.5 h
same,tmax,[2],2 h
